These results are taken from the supplement of paper PMC11208160.
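Note: IS621 recombinase and bridge RNA in Escherichia coli cells.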

This data set is described as follows: recombinant barcode read abundance after kanamycin selection (control-corrected) (log10(CPM+1)); higher = more efficient recombination; sequences stand for … in AGTGCAGAGAAAATCGGCCAGTTTTCTCTGCCTGCAGTCCGCATGCCGT…AGATTTATGCAGCGGACTGCCTTTCTCCCAAAGTGATAAACCGGACAGTATCATGGACCGGTTTTCCCGGTAATCCGTATTTGCAAGGTTGGTTTCACT; site = the 11-nt target. In outline: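 Recombination efficiency draws on barcodes counted at recombinant junctions in a pooled E. coli screen of targets paired with IS621 bridge RNA target-binding loops. The counts were converted to counts per million, averaged and corrected against the chloramphenicol/ampicillin LB agar control, then reported as log10(CPM+1). Selection plates held chloramphenicol/ampicillin/kanamycin with 0.1 mM IPTG, with two replicates per condition.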
For “CACCCCTCTTGGGTTCTAACCTGTTGCCG (site ATGAGGACTAC)”, the “recombinant barcode read abundance (log10)” value amounted to 0.0851.

Take “CACCCCTCTTGGGTTCTAACCTGTTGCCG (site CACCCCTCTCG)”: the “recombinant barcode read abundance (log10)” value stood at 2.44.

As for “CACCGTCCTTGGGTTCTAACCTGTTGCAT (site CACCGTCCTAC)”, the “recombinant barcode read abundance (log10)” value worked out at 0.0846.

As for “CACCGTCCTTGGGTTCTAACCTGTTGCAT (site CACCGTCCTAT)”, the “recombinant barcode read abundance (log10)” value came out at 1.61.

Regarding “CACCTGTCTTGGGTTCTAACCTGTTGCCG (site CACCTGACTCG)”, the “recombinant barcode read abundance (log10)” value was 0.151.

Take “CACCTGTCTTGGGTTCTAACCTGTTGCCG (site CACCTGTCTCG)”: the “recombinant barcode read abundance (log10)” value worked out at 1.94.

With “CACGCGTCTTGGGTTCTAACCTGTTGCTG (site CACGCGTCTCA)”, the “recombinant barcode read abundance (log10)” value was found to be 0.746.

Consider “CACGCGTCTTGGGTTCTAACCTGTTGCTG (site CACGCTTCTTA)”, for which the “recombinant barcode read abundance (log10)” value was found to be 0.0288.

As to “CACGCTCCTTGGGTTCTAACCTGTTGCGT (site ACTTGAGCTCT)”, the “recombinant barcode read abundance (log10)” value amounted to 0.119.

Turning to “CACGCTCCTTGGGTTCTAACCTGTTGCGT (site CACGCTCCTAC)”, the “recombinant barcode read abundance (log10)” value amounted to 0.656.

For “CACGGGTCTTGGGTTCTAACCTGTTGCTT (site CACGGGTCTAA)”, the “recombinant barcode read abundance (log10)” value worked out at 2.32.

“CACGGGTCTTGGGTTCTAACCTGTTGCTT (site CTCCGGTCTAA)”: the “recombinant barcode read abundance (log10)” value stood at 0.209.

With “CACTACCCTTGGGTTCTAACCTGTTGCTT (site AGGCCGTCTCC)”, the “recombinant barcode read abundance (log10)” value came out at 0.0811.

As for “CACTACCCTTGGGTTCTAACCTGTTGCTT (site CACTACCCTAA)”, the “recombinant barcode read abundance (log10)” value is 1.24.

“CACTATCCTTGGGTTCTAACCTGTTGCGG (site CACTAGCCTCC)”: the “recombinant barcode read abundance (log10)” value is 0.0909.

Take “CACTATCCTTGGGTTCTAACCTGTTGCGG (site CACTATCCTCC)”: the “recombinant barcode read abundance (log10)” value came to 1.5.

For “CACTCACCTTGGGTTCTAACCTGTTGCGG (site CACTCACCTCC)”, the “recombinant barcode read abundance (log10)” value amounted to 1.38.

Regarding “CACTCACCTTGGGTTCTAACCTGTTGCGG (site CACTTAGCTCC)”, the “recombinant barcode read abundance (log10)” value turned out to be 0.0338.

“CACTCTCCTTGGGTTCTAACCTGTTGCCT (site CACTCTCCTAG)”: the “recombinant barcode read abundance (log10)” value was 0.226.

In the case of “CACTCTCCTTGGGTTCTAACCTGTTGCCT (site CACTCTCCTAT)”, the “recombinant barcode read abundance (log10)” value was determined as 0.00896.

Turning to “CACTTAGCTTGGGTTCTAACCTGTTGCGG (site CACTCACCTCC)”, the “recombinant barcode read abundance (log10)” value turned out to be 0.0176.

For the sequence “CACTTAGCTTGGGTTCTAACCTGTTGCGG (site CACTTAGCTCC)”, the “recombinant barcode read abundance (log10)” value stood at 1.28.

Regarding “CACTTCCCTTGGGTTCTAACCTGTTGCCT (site CACTTCCCTAA)”, the “recombinant barcode read abundance (log10)” value was determined as 0.191.

As for “CACTTCCCTTGGGTTCTAACCTGTTGCCT (site CACTTCCCTAC)”, the “recombinant barcode read abundance (log10)” value was found to be 0.0709.

As to “CACTTCCCTTGGGTTCTAACCTGTTGCCT (site CACTTCCCTAG)”, the “recombinant barcode read abundance (log10)” value is 0.924.

As to “CACTTCCCTTGGGTTCTAACCTGTTGCCT (site CACTTCCCTAT)”, the “recombinant barcode read abundance (log10)” value came out at 0.0298.

For the sequence “CACTTCCCTTGGGTTCTAACCTGTTGCTT (site CACTTCCCTAA)”, the “recombinant barcode read abundance (log10)” value came to 1.04.

Take “CACTTCCCTTGGGTTCTAACCTGTTGCTT (site CACTTCCCTAC)”: the “recombinant barcode read abundance (log10)” value was 0.0814.

Turning to “CACTTCCCTTGGGTTCTAACCTGTTGCTT (site CACTTCCCTAG)”, the “recombinant barcode read abundance (log10)” value was 0.442.

As for “CACTTCCCTTGGGTTCTAACCTGTTGCTT (site CACTTCCCTAT)”, the “recombinant barcode read abundance (log10)” value is 0.443.

“CACTTGTCTTGGGTTCTAACCTGTTGCCA (site CACTTGTCTTG)”: the “recombinant barcode read abundance (log10)” value came out at 0.0547.

For “CACTTGTCTTGGGTTCTAACCTGTTGCCA (site TATTTGTCTTG)”, the “recombinant barcode read abundance (log10)” value is 0.0129.

Regarding “CAGAAGTCTTGGGTTCTAACCTGTTGCTT (site ACACGTGCTTC)”, the “recombinant barcode read abundance (log10)” value was 0.0609.

For “CAGAAGTCTTGGGTTCTAACCTGTTGCTT (site CAGAAGTCTAA)”, the “recombinant barcode read abundance (log10)” value turned out to be 1.44.

Take “CAGAATACTTGGGTTCTAACCTGTTGCGT (site CAAAATTCTAC)”: the “recombinant barcode read abundance (log10)” value was 0.215.

Take “CAGAATACTTGGGTTCTAACCTGTTGCGT (site CAGAATACTAC)”: the “recombinant barcode read abundance (log10)” value was 2.24.

In the case of “CAGAGAGCTTGGGTTCTAACCTGTTGCCT (site CAGAGAGCTAG)”, the “recombinant barcode read abundance (log10)” value is 1.2.

As to “CAGAGAGCTTGGGTTCTAACCTGTTGCCT (site CCGAGAGCTAG)”, the “recombinant barcode read abundance (log10)” value came out at 0.0663.

On to “CAGAGAGCTTGGGTTCTAACCTGTTGCCT (site CGGAGAGCTAG)”, for which the “recombinant barcode read abundance (log10)” value is 0.0978.

Take “CAGAGAGCTTGGGTTCTAACCTGTTGCCT (site CTGAGAGCTAG)”: the “recombinant barcode read abundance (log10)” value is 0.132.

For the sequence “CAGAGCTCTTGGGTTCTAACCTGTTGCCT (site CAGAGCTCTAG)”, the “recombinant barcode read abundance (log10)” value came out at 1.43.

For “CAGAGCTCTTGGGTTCTAACCTGTTGCCT (site CAGAGGTCTAG)”, the “recombinant barcode read abundance (log10)” value was 0.309.

For the sequence “CAGAGTCCTTGGGTTCTAACCTGTTGCCT (site CAGAGTCCTAG)”, the “recombinant barcode read abundance (log10)” value came to 1.26.

For the sequence “CAGAGTCCTTGGGTTCTAACCTGTTGCCT (site CAGAGTCCTAT)”, the “recombinant barcode read abundance (log10)” value was 0.3.

On to “CAGATCCCTTGGGTTCTAACCTGTTGCCT (site CAGATCCCTAG)”, for which the “recombinant barcode read abundance (log10)” value came to 1.91.

Consider “CAGATCCCTTGGGTTCTAACCTGTTGCCT (site CCGATCCCTAG)”, for which the “recombinant barcode read abundance (log10)” value amounted to 0.0889.

For “CAGATCCCTTGGGTTCTAACCTGTTGCCT (site CGGATCCCTAG)”, the “recombinant barcode read abundance (log10)” value came out at 0.0247.

Turning to “CAGATCCCTTGGGTTCTAACCTGTTGCCT (site CTGATCCCTAG)”, the “recombinant barcode read abundance (log10)” value is 0.0156.

On to “CAGATGACTTGGGTTCTAACCTGTTGCCT (site CAAATTACTAG)”, for which the “recombinant barcode read abundance (log10)” value was found to be 0.393.

With “CAGATGACTTGGGTTCTAACCTGTTGCCT (site CAGATGACTAG)”, the “recombinant barcode read abundance (log10)” value came to 1.52.

As to “CAGCCGTCTTGGGTTCTAACCTGTTGCGG (site CAATCGTCTCC)”, the “recombinant barcode read abundance (log10)” value was 0.0473.

For the sequence “CAGCCGTCTTGGGTTCTAACCTGTTGCGG (site CAGCCGTCTCC)”, the “recombinant barcode read abundance (log10)” value was found to be 1.09.

As to “CAGCGAGCTTGGGTTCTAACCTGTTGCCG (site CAACGAGCTCG)”, the “recombinant barcode read abundance (log10)” value was 0.21.

For the sequence “CAGCGAGCTTGGGTTCTAACCTGTTGCCG (site CACCGAGCTCG)”, the “recombinant barcode read abundance (log10)” value came out at 0.117.

For “CAGCGAGCTTGGGTTCTAACCTGTTGCCG (site CAGCGAGCTCG)”, the “recombinant barcode read abundance (log10)” value came out at 0.737.

For the sequence “CAGCGAGCTTGGGTTCTAACCTGTTGCCG (site CATCGAGCTCG)”, the “recombinant barcode read abundance (log10)” value came out at 0.0483.

Regarding “CAGGAGACTTGGGTTCTAACCTGTTGCCT (site CAGGAGACTAG)”, the “recombinant barcode read abundance (log10)” value stood at 1.63.

Take “CAGGAGACTTGGGTTCTAACCTGTTGCCT (site TAGGAGACTGG)”: the “recombinant barcode read abundance (log10)” value is 0.0578.

As to “CAGGCGACTTGGGTTCTAACCTGTTGCCT (site CAGGCGACTAG)”, the “recombinant barcode read abundance (log10)” value was 0.0758.
